Measured values from patent US20260098046A1, “RIFABUTIN ANALOGS FOR THE TREATMENT OF DISEASE” (BIOVERSYS AG, priority 2022, published 2026).
Converted amounts (≈) assume the structure as drawn. Read-outs that look alike come from different tables or passages of the source.

What was measured:
Format in all cases: cell-based
[1] = tested on: M. abscessus (ATCC 19977); test: MIC by broth microdilution (CLSI) against M. abscessus; settings: Mycobacteroides abscessus
Protocol: (§1) MIC values were determined by broth microdilution method according to the CLSI guideline. Unless otherwise mentioned, MIC against A. baumannii was performed in RPMI medium supplemented with 10% FCS. MIC against M. abscessus was performed in Middlebrook 7H9 broth supplemented with Middlebrook ADC growth supplement (10%). All other MIC were performed in standard cation adjusted Mueller Hinton broth, supplemented with Middlebrook ADC growth supplement (5%) for the slow growing mycobacteria (M. xenopi, M. kansasii and M. avium).
(§2) The following procedure applies to all species tested, except for M. xenopi. From a fresh culture plate (from overnight to several days depending on the bacteria), cells were resuspended in 0.9% (w/v) saline solution and bacterial inoculum was prepared in the respective testing medium with 5×10^5 CFU/mL. For M. xenopi, the inoculum was prepared from a fresh liquid culture (7H9+ADC). The appropriate volumes of a 10 mg/mL compound solution were directly dispensed in the 96-well assay plate using a digital dispenser to create two-fold dilution series from 32 to 0.002 μg/mL final concentration for A. baumannii and S. aureus; from 16 to 0.016 μg/mL for M. abscessus and M. avium; and from 1 to 6×10^−5 μg/mL for M. kansasii and M. xenopi. 100 μL of bacterial suspension was finally added to the compounds. Plates were covered and incubated without shaking at 35° C. for 20 hours for A. baumanii and S. aureus; at 30° C. for 4 days for M. abscessus; and at 37° C. for 7 days (at least) for M. kansasii (covered with aluminum foil to avoid light exposure), M. avium and M. xenopi. Every experiment contained an antibiotic as quality control. MIC was determined visually as the lowest concentration of a compound that prevents visible growth of the bacteria.
(§3) The in vitro activity of compounds described herein was determined against S. aureus (UAMS-1625 strain), A. baumannii (HUMC1 strain), M. abscessus (ATCC 19977), M. kansasii (ATCC12478), M. avium (ATCC25291), and M. xenopi (ATCC19250).

M. kansasii (ATCC12478) = test: MIC by broth microdilution (CLSI) against M. kansasii; settings: Mycobacterium kansasii, 168 h, cation adjusted Mueller Hinton broth + ADC (5%), 37° C. for 7 days (at least), read-out: In vitro activity (MIC) M. kansasii
Protocol: as §1, §2, §3

M. xenopi (ATCC19250) = test: MIC by broth microdilution (CLSI) against M. xenopi; settings: Mycobacterium xenopi, 168 h, cation adjusted Mueller Hinton broth + ADC (5%), 37° C. for 7 days (at least), read-out: In vitro activity (MIC) M. xenopi
Protocol: as §1, §2, §3

[2] = tested on: A. baumannii (HUMC1 strain); test: MIC by broth microdilution (CLSI) against A. baumannii; settings: Acinetobacter baumannii, RPMI medium supplemented with 10% FCS, 35° C. for 20 hours, read-out: In vitro activity (MIC) A. baumannii
Protocol: as §1, §2, §3

[3] = tested on: S. aureus (UAMS-1625 strain); test: MIC by broth microdilution (CLSI) against S. aureus; settings: Staphylococcus aureus, 20 h, read-out: In vitro activity (MIC) S. aureus
Protocol: as §1, §2, §3

M. avium (ATCC25291) = test: MIC by broth microdilution (CLSI) against M. avium; settings: Mycobacterium avium, 168 h, cation adjusted Mueller Hinton broth + ADC (5%), 37° C. for 7 days (at least), read-out: In vitro activity (MIC) M. avium
Protocol: as §1, §2, §3

[4] = ATCC19977, 96 h, ATCC 19977, Middlebrook 7H9 broth + ADC (10%), 30° C. for 4 days, read-out: In vitro activity (MIC) M. abscessus

Row | Compound | MIC [1, 4] [µg/mL] | MIC (M. kansasii (ATCC12478)) [µg/mL] | MIC (M. xenopi (ATCC19250)) [µg/mL] | MIC [2] [µg/mL] | MIC [3] [µg/mL] | MIC (M. avium (ATCC25291)) [µg/mL] | MIC ([1]; ATCC19977, tested M. abscessus strains, read-out: MIC value on M. abscessus) [µg/mL]
1 | CO[C@H]1/C=C/O[C@@]2(C)Oc3c(C)c(O)c4c(c3C2=O)C2=NC3(CCN(CC(C)C)CC3)NC2=C(NC(=O)/C(C)=C\C=C\[C@H](C)[C@H](O)[C@@H](C)[C@@H](O)[C@@H](C)[C@H](OC(=O)Cn2cc(-c3ccccc3)nn2)[C@@H]1C)C4=O [Compound 1] | 0.25 | 0.002 | 0.016 | 0.004 (≈ 0.00404 µM) | 0.125 (≈ 0.126 µM) | 0.03 | 
2 | COc1ccc(-c2cn(CC(=O)O[C@H]3[C@H](C)[C@H](O)[C@H](C)[C@@H](O)[C@@H](C)/C=C/C=C(/C)C(=O)NC4=C5NC6(CCN(CC(C)C)CC6)N=C5c5c(c(O)c(C)c6c5C(=O)[C@@](C)(O/C=C/[C@H](OC)[C@H]3C)O6)C4=O)nn2)cc1 [Compound 2] | 0.25 | 0.002 | 0.125 | 0.016 (≈ 0.0157 µM) | 0.125 (≈ 0.123 µM) | 0.06 | 
3 | CO[C@H]1/C=C/O[C@@]2(C)Oc3c(C)c(O)c4c(c3C2=O)C2=NC3(CCN(CC(C)C)CC3)NC2=C(NC(=O)/C(C)=C\C=C\[C@H](C)[C@H](O)[C@@H](C)[C@@H](O)[C@@H](C)[C@H](OC(=O)Cn2cc(-c3ccc(N)cc3)nn2)[C@@H]1C)C4=O [Compound 3] | 1 |  |  | ≤ 0.002 | 0.03 (≈ 0.0298 µM) |  | 
4 | CO[C@H]1/C=C/O[C@@]2(C)Oc3c(C)c(O)c4c(c3C2=O)C2=NC3(CCN(CC(C)C)CC3)NC2=C(NC(=O)/C(C)=C\C=C\[C@H](C)[C@H](O)[C@@H](C)[C@@H](O)[C@@H](C)[C@H](OC(=O)Cn2cc(-c3ccc([N+](=O)[O-])cc3)nn2)[C@@H]1C)C4=O [Compound 4] | 0.125 | 0.002 | 0.03 | 0.125 (≈ 0.121 µM) | 0.5 (≈ 0.483 µM) | 0.03 | 
5 | COc1ccc2cc(-c3cn(CC(=O)O[C@H]4[C@H](C)[C@H](O)[C@H](C)[C@@H](O)[C@@H](C)/C=C/C=C(/C)C(=O)NC5=C6NC7(CCN(CC(C)C)CC7)N=C6c6c(c(O)c(C)c7c6C(=O)[C@@](C)(O/C=C/[C@H](OC)[C@H]4C)O7)C5=O)nn3)ccc2c1 [Compound 6] | 0.25 | 0.002 | 0.03 | 1 (≈ 0.934 µM) | 8 (≈ 7.47 µM) | 0.06 | 
6 | CO[C@H]1/C=C/O[C@@]2(C)Oc3c(C)c(O)c4c(c3C2=O)C2=NC3(CCN(CC(C)C)CC3)NC2=C(NC(=O)/C(C)=C\C=C\[C@H](C)[C@H](O)[C@@H](C)[C@@H](O)[C@@H](C)[C@H](OC(=O)Cn2cc(-c3ccc(-c5ccccc5)cc3)nn2)[C@@H]1C)C4=O [Compound 7] | 1 |  |  | 1 (≈ 0.938 µM) | 8 (≈ 7.5 µM) |  | 
7 | CO[C@H]1/C=C/O[C@@]2(C)Oc3c(C)c(O)c4c(c3C2=O)C2=NC3(CCN(CC(C)C)CC3)NC2=C(NC(=O)/C(C)=C\C=C\[C@H](C)[C@H](O)[C@@H](C)[C@@H](O)[C@@H](C)[C@H](OC(=O)Cn2cc(-c3ccccn3)nn2)[C@@H]1C)C4=O [Compound 8] | 0.25 | 0.004 | 0.06 | ≤ 0.002 | 0.03 (≈ 0.0303 µM) | 0.06 | 
8 | CO[C@H]1/C=C/O[C@@]2(C)Oc3c(C)c(O)c4c(c3C2=O)C2=NC3(CCN(CC(C)C)CC3)NC2=C(NC(=O)/C(C)=C\C=C\[C@H](C)[C@H](O)[C@@H](C)[C@@H](O)[C@@H](C)[C@H](OC(=O)Cn2cc(CCCc3ccccc3)nn2)[C@@H]1C)C4=O [Compound 10] | 0.5 |  |  | 0.125 (≈ 0.121 µM) | 8 (≈ 7.75 µM) |  | 
9 | CO[C@H]1/C=C/O[C@@]2(C)Oc3c(C)c(O)c4c(c3C2=O)C2=NC3(CCN(CC(C)C)CC3)NC2=C(NC(=O)/C(C)=C\C=C\[C@H](C)[C@H](O)[C@@H](C)[C@@H](O)[C@@H](C)[C@H](OC(=O)Cn2cc(-c3cccs3)nn2)[C@@H]1C)C4=O [Compound 11] | 1 |  |  | 0.008 (≈ 0.00803 µM) | 0.03 (≈ 0.0301 µM) |  | 
10 | CO[C@H]1/C=C/O[C@@]2(C)Oc3c(C)c(O)c4c(c3C2=O)C2=NC3(CCN(CC(C)C)CC3)NC2=C(NC(=O)/C(C)=C\C=C\[C@H](C)[C@H](O)[C@@H](C)[C@@H](O)[C@@H](C)[C@H](OC(=O)Cn2cc(C(C)(C)N)nn2)[C@@H]1C)C4=O [Compound 13] | 1 |  |  | ≤ 0.002 | 0.125 (≈ 0.129 µM) |  | 
11 | CO[C@H]1/C=C/O[C@@]2(C)Oc3c(C)c(O)c4c(c3C2=O)C2=NC3(CCN(CC(C)C)CC3)NC2=C(NC(=O)/C(C)=C\C=C\[C@H](C)[C@H](O)[C@@H](C)[C@@H](O)[C@@H](C)[C@H](OC(=O)Cn2cc(CN3CCS(=O)(=O)CC3)nn2)[C@@H]1C)C4=O [Compound 14] | 1 |  |  | ≤ 0.002 | 0.06 (≈ 0.0565 µM) |  | 
12 | CO[C@H]1/C=C/O[C@@]2(C)Oc3c(C)c(O)c4c(c3C2=O)C2=NC3(CCN(CC(C)C)CC3)NC2=C(NC(=O)/C(C)=C\C=C\[C@H](C)[C@H](O)[C@@H](C)[C@@H](O)[C@@H](C)[C@H](OC(=O)Cn2cc(CNS(C)(=O)=O)nn2)[C@@H]1C)C4=O [Compound 15] | 1 |  |  | ≤ 0.002 | 0.125 (≈ 0.122 µM) |  | 
13 | CO[C@H]1/C=C/O[C@@]2(C)Oc3c(C)c(O)c4c(c3C2=O)C2=NC3(CCN(CC(C)C)CC3)NC2=C(NC(=O)/C(C)=C\C=C\[C@H](C)[C@H](O)[C@@H](C)[C@@H](O)[C@@H](C)[C@H](OC(=O)Cn2cc(CNS(=O)(=O)c3ccccc3)nn2)[C@@H]1C)C4=O [Compound 16] | 0.5 |  |  | 0.008 (≈ 0.00739 µM) | 0.125 (≈ 0.115 µM) |  | 
14 | CO[C@H]1/C=C/O[C@@]2(C)Oc3c(C)c(O)c4c(c3C2=O)C2=NC3(CCN(CC(C)C)CC3)NC2=C(NC(=O)/C(C)=C\C=C\[C@H](C)[C@H](O)[C@@H](C)[C@@H](O)[C@@H](C)[C@H](OC(=O)Cn2cc(CNS(=O)(=O)c3ccc(C)cc3)nn2)[C@@H]1C)C4=O [Compound 17] | 0.5 |  |  | 0.008 (≈ 0.00729 µM) | 0.25 (≈ 0.228 µM) |  | 
15 | CO[C@H]1/C=C/O[C@@]2(C)Oc3c(C)c(O)c4c(c3C2=O)C2=NC3(CCN(CC(C)C)CC3)NC2=C(NC(=O)/C(C)=C\C=C\[C@H](C)[C@H](O)[C@@H](C)[C@@H](O)[C@@H](C)[C@H](OC(=O)Cn2cc(CNS(=O)(=O)c3ccc(Cl)cc3)nn2)[C@@H]1C)C4=O [Compound 18] | 0.5 |  |  | 0.06 (≈ 0.0537 µM) | 0.5 (≈ 0.447 µM) |  | 
16 | CCCc1cn(CC(=O)O[C@H]2[C@H](C)[C@H](O)[C@H](C)[C@@H](O)[C@@H](C)/C=C/C=C(/C)C(=O)NC3=C4NC5(CCN(CC(C)C)CC5)N=C4c4c(c(O)c(C)c5c4C(=O)[C@@](C)(O/C=C/[C@H](OC)[C@H]2C)O5)C3=O)nn1 [Compound 24] | 1 |  |  | 0.004 (≈ 0.00418 µM) | 0.03 (≈ 0.0314 µM) |  | 
17 | CO[C@H]1/C=C/O[C@@]2(C)Oc3c(C)c(O)c4c(c3C2=O)C2=NC3(CCN(CC(C)C)CC3)NC2=C(NC(=O)/C(C)=C\C=C\[C@H](C)[C@H](O)[C@@H](C)[C@@H](O)[C@@H](C)[C@H](OC(=O)Cn2cc(C3CC3)nn2)[C@@H]1C)C4=O [Compound 25] | 4 |  |  | ≤ 0.002 | 0.03 (≈ 0.0314 µM) |  | 
18 | CO[C@H]1/C=C/O[C@@]2(C)Oc3c(C)c(O)c4c(c3C2=O)C2=NC3(CCN(CC(C)C)CC3)NC2=C(NC(=O)/C(C)=C\C=C\[C@H](C)[C@H](O)[C@@H](C)[C@@H](O)[C@@H](C)[C@H](OC(=O)Cn2cc(C(C)(C)C)nn2)[C@@H]1C)C4=O [Compound 27] | 2 |  |  | 0.004 (≈ 0.00412 µM) | 0.06 (≈ 0.0618 µM) |  | 
19 | CO[C@H]1/C=C/O[C@@]2(C)Oc3c(C)c(O)c4c(c3C2=O)C2=NC3(CCN(CC(C)C)CC3)NC2=C(NC(=O)/C(C)=C\C=C\[C@H](C)[C@H](O)[C@@H](C)[C@@H](O)[C@@H](C)[C@H](OC(=O)Cn2cc(CC3CCCCC3)nn2)[C@@H]1C)C4=O [Compound 28] | 0.5 |  |  | 0.03 (≈ 0.0297 µM) | 0.5 (≈ 0.495 µM) |  | 
20 | CO[C@H]1/C=C/O[C@@]2(C)Oc3c(C)c(O)c4c(O)c(c(/C=N/N5CCN(C)CC5)c(O)c4c3C2=O)NC(=O)/C(C)=C\C=C\[C@H](C)[C@H](O)[C@@H](C)[C@@H](O)[C@@H](C)[C@H](OC(C)=O)[C@@H]1C [Rifampicin, reference compound] |  |  |  |  |  |  | > 32
